Data on 20 compounds can be found in US6723742B2, “Substituted 3,5-diphenyl-1,2,4-triazoles and their use as pharmaceutical metal chelators” (Novartis AG., priority 1996, dated 2004).

For one experiment, the system named is Male Sprague-Dawley rats. Kind of experiment: Test I: iron excretion induced in bile duct-cannulated rats (bile and urine iron, bathophenanthroline method). The class given is in vivo. The following applies: bile duct-cannulated fasted rat, bile and urine collected for 24 h. How it is done:
Test I: Iron Excretion Induced by Compounds of Formula I or II [Method as Described in Bergeron et al., J. Med. Chem. 34:2072-2078 (1991)]
Male Sprague-Dawley rats averaging 400 g are housed in Nalgene plastic metabolic cages and are given free access to water. The animals are anesthetized with sodium pentobarbital (50 mg/kg), given ip. The bile duct is cannulated with 22 gauge PE 50 tubing which is inserted ca. 2 cm into the duct and tied firmly in place. A skin-tunneling needle is inserted from the shoulder area around the abdominal incision. The cannula is threaded through the needle until it emerges from the shoulder opening. The cannula is then passed from the animal to the swivel inside a metal torque-transmitting tether, which is attached to a rodent jacket. The cannula is directed from the animal to a Gilson microfraction collector by a fluid swivel mounted above the metabolic cage. This system allows the animal to move freely in the cage while continuous bile samples are being collected. Bile samples are collected in plastic disposable tubes at 3 h intervals for 24 h. Urine samples are collected in plastic disposable tubes for 24 h.
Compounds of formula I or II are prepared in 60 % water, 40 % Cremophor RH-40 (v/v).
All animals are fasted for 48 h before the administration of the compound of formula I or II and the fast is maintained throughout the course of the experiment.
The iron indicator solution, solution A, is prepared by diluting a stock aqueous solution of 0.134 mM mercaptoacetic acid and 1.9 mM bathophenanthrolinedisulfonic acid disodium salt with 5 parts water and 5 parts saturated aqueous sodium acetate. Solution B is prepared as above but without the bathophenanthroline.
An equal volume of a 10 % trichloroacetic acid solution in 3 M HCl (solution C) is added to a urine sample (2.5 ml), and the sample heated in a 65° C. bath for 4 h. After filtration through nylon filters, two 1 ml aliquots are removed. Solution A (5 ml) is added to the sample, and solution B (5 ml) is added to the blank. Bile samples are prepared as the urine samples; however, the volumes are reduced. Standard iron curves are generated with each assay. All samples are transferred to polystyrene cuvettes and the absorbance measured at 535 nm.
Compounds of formula I or II are effective in this assay when administered at a dose in the range of from 10 to 200 mg/kg, e.g. 100 to 150 mg/kg. The induced total iron excretion is in the range of about 10 to 1500 μg Fe/kg body weight, e.g. 90 to 1000 μg Fe/kg body weight.

For experiment [1], the system named is iron-overloaded marmosets (Callithrix jacchus). Kind of experiment: Test II: iron excretion induced in iron-overloaded marmosets (urine and feces iron). In kind it is in vivo. The following applies: iron-overloaded marmoset, p.o., dose 110.5 mg/kg; 48 h after administration, pretreatment subtracted; one line per animal. On the procedure:
Test II: Iron Excretion Induced by Compounds of Formula I or II [Method as Described in Bergeron et al., Blood 81:2166-2173 (1993)]
Adult (1 to 11 years old) marmosets (Callithrix jacchus) of both sexes, weighing 300 to 450 g are kept in pairs at 24-27° C. and a relative humidity of at least 60% in a 12-hour light-dark cycle. The animals are maintained on a pellet diet (No. 962 Nafag, Gossau, Switzerland) supplemented with fruit-vegetable mash, enriched with a vitamin-minerals concentrate (No. 9628 Nafag) and milk. Water is available ad libitum.
Iron-overloading procedure: The animals are iron-overloaded by 3 i.p. injections of iron (III) hydroxide polyisomaltose (Anaemex, Ciba-Geigy, Basel, Switzerland) at 14-day intervals (200 mg/kg twice and 100 mg/kg at the third injection). Prior to the first exposure to an iron chelator, the marmosets are rested at least 8 weeks.
Chelators administration: The test compounds are dispersed in 40 % aqueous Cremophor RH 40 (BASF, Ludwigshafen, Germany) for administration. The applied volume is 5 ml/kg body weight.
Iron excretion studies: The monkeys receive a low-iron diet 7 days before and throughout the experiments (4 days). The diet is prepared by mixing 628.9 g of a liquid diet for primates (Nafag No. 9694), 83 g of the corresponding lipid mixture (Nafag No. 9696), 131.3 g dietary fiber (Sanacell, Nafag) and 1.0 L of distilled water. […]

On to `O=C(Cn1nc(-c2ccccc2O)nc1-c1ccccc1O)N(CCO)CCO` [Example 37, 2-[3,5-Bis(2-hydroxyphenyl)-[1,2,4]triazol-1-yl]-N,N-bis(2-hydroxyethyl)-acetamide], for which the “induced total iron excretion” value in the experiment on Male Sprague-Dawley rats (dose 100 mg/kg) amounted to 301 μg Fe/kg body weight.
Still for that read-out and setting: to `O=C(Cn1nc(-c2ccccc2O)nc1-c1ccccc1O)NCCN(CCO)CCO` [Example 30, N-{2-[Bis(2-hydroxyethyl)amino]ethyl}-2-[3,5-bis(2-hydroxyphenyl)-[1,2,4]triazol-1-yl]acetamide] belongs 447 μg Fe/kg body weight; to `O=C(Cn1nc(-c2ccccc2O)nc1-c1ccccc1O)NCCO` [Example 24, 2-[3,5bis(2-hydroxyphenyl)-(1,2,4]triazol-1-yl]-N-(2-hydroxyethyl)acetamide], 413 μg Fe/kg body weight.
Same read-out and setting: to `O=C(Cn1nc(-c2ccccc2O)nc1-c1ccccc1O)NCC(O)CO` (stereo not drawn) [Example 26, 2-[3,5-Bis(2-hydroxyphenyl)-[1,2,4]triazol-1-yl]-N-(2,3-dihydroxypropyl)-acetamide] belongs 171 μg Fe/kg body weight; to `O=C(O)c1ccc(-n2nc(-c3ccccc3O)nc2-c2ccccc2O)cc1` [Example 5, 4-[3,5-Bis(2-hydroxyphenyl)-[1,2,4]triazol-1-yl]benzoic acid], 659 μg Fe/kg body weight; to `O=C(Cn1nc(-c2ccccc2O)nc1-c1ccccc1O)N1CCOCC1` [Example 34, 2-[3,5-Bis(2-hydroxyphenyl)-[1,2,4]triazol-1-yl]-l-morpholin-4-ylethanone], 204 μg Fe/kg body weight.
As for `COCCNC(=O)Cn1nc(-c2ccccc2O)nc1-c1ccccc1O` [Example 25, 2-[3,5-Bis(2-hydroxyphenyl)-[1,2,4]triazol-1-yl]-N-(2-methoxyethyl)acetamide], the “induced total iron excretion” value in the experiment on Male Sprague-Dawley rats (dose 100 mg/kg) is 337 μg Fe/kg body weight. In addition, the “induced iron in feces” value in experiment [1] stood at 163.2 µg/kg.
As for `OCCn1nc(-c2ccccc2O)nc1-c1ccccc1O` [Example 1, 3,5-Bis(2-hydroxyphenyl)-1-(2-hydroxyethyl)-1H-[1,2,4]triazole], in the experiment on Male Sprague-Dawley rats (dose 100 mg/kg), the “induced total iron excretion” value was determined as 368 μg Fe/kg body weight.
Same read-out and setting: to `CN(CCO)C(=O)Cn1nc(-c2ccccc2O)nc1-c1ccccc1O` [Example 28, 2-[3,5-Bis(2-hydroxyphenyl)-[1,2,4]triazol-1-yl]-N-(2-hydroxyethyl)-N-methyl-acetamide] belongs 413 μg Fe/kg body weight.
With `CN(C)CCN(C)C(=O)Cn1nc(-c2ccccc2O)nc1-c1ccccc1O` [Example 38, 2-[3,5-Bis(2-hydroxyphenyl)-[1,2,4]triazol-1-yl]-N-(2-dimethylaminoethyl)-N-methylacetamide], in the experiment with Male Sprague-Dawley rats (dose 119 mg/kg), the “induced total iron excretion” value amounted to 970 μg Fe/kg body weight.
As to `CN1CCN(C(=O)Cn2nc(-c3ccccc3O)nc2-c2ccccc2O)CC1` [Example 35, 2-[3,5-Bis(2-hydroxyphenyl)-[1,2,4]triazol-1-yl]-1-(4-methylpiperazin-1-yl)-ethanone], the “induced total iron excretion” value in the experiment with Male Sprague-Dawley rats (dose 118 mg/kg) is listed as 293 μg Fe/kg body weight.
`O=C(Cn1nc(-c2ccccc2O)nc1-c1ccccc1O)NCCOCCO` [Example 29, 2-[3,5-Bis(2-hydroxyphenyl)-[1,2,4]triazol-1-yl]-N-[2-(2-hydroxyethoxy)ethyl]-acetamide]: in the experiment with Male Sprague-Dawley rats (dose 100 mg/kg), the “induced total iron excretion” value was determined as 359 μg Fe/kg body weight.
For `O=C(c1ccc(-n2nc(-c3ccccc3O)nc2-c2ccccc2O)cc1)N1CCOCC1` [Example 6, {4-[3,5-Bis(2-hydroxyphenyl)-[1,2,4]triazol-1-yl]-phenyl}morpholin-4-yl-methanone], the “induced total iron excretion” value in the experiment on Male Sprague-Dawley rats (dose 133 mg/kg) came out at 968 μg Fe/kg body weight.
With `O=C(O)Cn1nc(-c2ccccc2O)nc1-c1ccccc1O` [Example 22, [3,5-Bis(2-hydroxyphenyl)-[1,2,4]triazol-1-yl]acetic acid], the “induced total iron excretion” value in the experiment on Male Sprague-Dawley rats (dose 100 mg/kg) is reported as 147 μg Fe/kg body weight.
The same measure, in the same setting: for `CCOC(=O)Cn1nc(-c2ccccc2O)nc1-c1ccccc1O` [Example 2, Ethyl [3,5bis(2-hydroxyphenyl)-[1,2,4]triazol-1-yl]acetate] the value was 91 μg Fe/kg body weight; for `O=C(Cn1nc(-c2ccccc2O)nc1-c1ccccc1O)NCCN1CCOCC1` [Example 27, 2-[3,5-Bis(2-hydroxyphenyl)-[1,2,4]triazol-1-yl]-N-(2-morpholin-4-yl-ethyl)-acetamide], 451 μg Fe/kg body weight.
With `O=C(O)c1ccc(-n2nc(-c3cc(Cl)ccc3O)nc2-c2cc(Cl)ccc2O)cc1` [Example 17, 4-[3,5-Bis(5-chloro-2-hydroxyphenyl)-[1,2,4]triazol-1-yl]benzoic acid], in the experiment with Male Sprague-Dawley rats (dose 133 mg/kg), the “induced total iron excretion” value is given as 203 μg Fe/kg body weight.
Consider `Cc1ccc(O)c(-c2nc(-c3cc(C)ccc3O)n(-c3ccc(C(=O)O)cc3)n2)c1` [Example 21, 4-[3,5-Bis(2-hydroxy-5-methylphenyl)-[1,2,4]triazol-1-yl]benzoic acid], for which, in the experiment on Male Sprague-Dawley rats (dose 120 mg/kg), the “induced total iron excretion” value came to 317 μg Fe/kg body weight.
In the case of `CN(C)C(=O)Cn1nc(-c2ccccc2O)nc1-c1ccccc1O` [Example 33, 2-[3,5-Bis(2-hydroxyphenyl)-[1,2,4]triazol-1-yl]-N,N-dimethylacetamide], the “induced total iron excretion” value in the experiment on Male Sprague-Dawley rats (dose 100 mg/kg) was 282 μg Fe/kg body weight.
As for `O=C(Cn1nc(-c2ccccc2O)nc1-c1ccccc1O)NC(CO)CO` [Example 31, 2-[3,5-Bis(2-hydroxyphenyl)-[1,2,4]triazol-1-yl]-N-(2-hydroxy-1-hydroxymethyl-ethyl)acetamide], the “induced total iron excretion” value in the experiment on Male Sprague-Dawley rats (dose 100 mg/kg) was found to be 175 μg Fe/kg body weight.
